ChEMBL document CHEMBL1201862, “PubChem BioAssay data set” (2004)
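Step 1: Grow cells in 96-well plates. Step 2: Expose to compound for 48 hours at 5 concentrations. Step 3: Interpolate endpoints linearly; if unreached, use highest concentration. GI50 marks 50% less growth.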 The source made the active and inactive calls. No stated cut-off is given here; in the data, active = GI50 up to about 1.1 µM and inactive = higher.

Experiments:
Experiment in all cases: NCI tumour cell line growth inhibition, 48 h
[1] = system: CAKI-1
[2] = system: COLO 205
[3] = system: DU-145
[4] = system: EKVX
[5] = system: HCT-116
[6] = system: HOP-62
[7] = system: IGROV-1
[8] = system: LOX IMVI
[9] = system: M14
[10] = system: MDA-MB-231
[11] = system: NCI-H226
[12] = system: OVCAR-8
[13] = system: SF-268
[14] = system: SF-295
[15] = system: SF-539
[16] = system: SK-MEL-2
[17] = system: TK-10
[18] = system: MDA-N
[19] = system: Malme-3M
[20] = system: SN12C

SMILES	GI50 [1]	GI50 [2]	GI50 [3]	GI50 [4]	GI50 [5]	GI50 [6]	GI50 [7]	GI50 [8]	GI50 [9]	GI50 [10]	GI50 [11]	GI50 [12]	GI50 [13]	GI50 [14]	GI50 [15]	GI50 [16]	GI50 [17]	GI50 [18]	GI50 [19]	GI50 [20]
Cc1c(/C=N/NC(=S)Nc2cccc(Cl)c2)c(=O)n(-c2ccccc2)n1C	13 µM (inactive)	96.6 µM (inactive)	24.1 µM (inactive)	6.65 µM (inactive)	34 µM (inactive)	13.9 µM (inactive)	18.2 µM (inactive)	46.8 µM (inactive)	16.6 µM (inactive)	17.6 µM (inactive)	13.8 µM (inactive)	14.1 µM (inactive)	16.4 µM (inactive)	10.4 µM (inactive)	17.1 µM (inactive)	18.6 µM (inactive)	16.6 µM (inactive)	–	–	–
CC1CC(=O)Nc2nc3ccccc3n21 (stereo unspecified)	> 100 µM (inactive)	> 100 µM (inactive)	–	0.953 µM (active)	> 100 µM (inactive)	> 100 µM (inactive)	> 100 µM (inactive)	> 100 µM (inactive)	> 100 µM (inactive)	> 100 µM (inactive)	> 100 µM (inactive)	> 100 µM (inactive)	> 100 µM (inactive)	> 100 µM (inactive)	> 100 µM (inactive)	> 100 µM (inactive)	> 100 µM (inactive)	> 100 µM (inactive)	> 100 µM (inactive)	–
Nc1nc(Cl)cc(OCC2(CO)CC=CC2)n1	–	–	> 100 µM (inactive)	> 100 µM (inactive)	> 100 µM (inactive)	> 100 µM (inactive)	> 100 µM (inactive)	> 100 µM (inactive)	–	–	> 100 µM (inactive)	> 100 µM (inactive)	> 100 µM (inactive)	> 100 µM (inactive)	> 100 µM (inactive)	–	> 100 µM (inactive)	> 100 µM (inactive)	> 100 µM (inactive)	> 100 µM (inactive)
COc1ccc2c(c1)c1c(n2CCN2CCCCC2)-c2ccccc2CC1	11.8 µM (inactive)	13.6 µM (inactive)	32.1 µM (inactive)	17.9 µM (inactive)	16.2 µM (inactive)	18.6 µM (inactive)	11.6 µM (inactive)	21.3 µM (inactive)	14.7 µM (inactive)	16.4 µM (inactive)	5.2 µM (inactive)	14.9 µM (inactive)	13.8 µM (inactive)	14.8 µM (inactive)	13.6 µM (inactive)	15.2 µM (inactive)	14 µM (inactive)	–	14.6 µM (inactive)	16.9 µM (inactive)
Cc1cc(NCC2CC/C(=C\C=C\c3ccccc3)C2=O)no1 (stereo unspecified)	> 100 µM (inactive)	> 100 µM (inactive)	> 100 µM (inactive)	> 100 µM (inactive)	> 100 µM (inactive)	> 100 µM (inactive)	> 100 µM (inactive)	> 100 µM (inactive)	> 100 µM (inactive)	98.4 µM (inactive)	49.8 µM (inactive)	> 100 µM (inactive)	> 100 µM (inactive)	40.8 µM (inactive)	> 100 µM (inactive)	–	84.9 µM (inactive)	–	> 100 µM (inactive)	> 100 µM (inactive)
O=C1C(F)=CC(COC(c2ccccc2)(c2ccccc2)c2ccccc2)OC1n1cc(F)c(=O)[nH]c1=O (stereo unspecified)	2.49 µM (inactive)	–	–	7.89 µM (inactive)	2.77 µM (inactive)	3.18 µM (inactive)	1.46 µM (inactive)	0.533 µM (active)	1.83 µM (inactive)	3.26 µM (inactive)	1.83 µM (inactive)	1.87 µM (inactive)	2.9 µM (inactive)	2.2 µM (inactive)	1.94 µM (inactive)	2.91 µM (inactive)	1.34 µM (inactive)	1.11 µM (active)	3.33 µM (inactive)	1.75 µM (inactive)
COC1=CC(C2c3cc4c(cc3[C@@H](Nc3ccc([N+](=O)[O-])cc3)C3COC(=O)[C@H]23)OCO4)=CC(=O)C1=O (stereo partly specified)	2.64 µM (inactive)	21.4 µM (inactive)	–	7.57 µM (inactive)	6.64 µM (inactive)	0.646 µM (active)	13 µM (inactive)	2.15 µM (inactive)	3.29 µM (inactive)	–	1.64 µM (inactive)	4.25 µM (inactive)	2.53 µM (inactive)	2.09 µM (inactive)	1.82 µM (inactive)	17 µM (inactive)	8.41 µM (inactive)	–	4.46 µM (inactive)	2 µM (inactive)
COc1cc(C2c3cc4c(cc3[C@@H](Nc3ccc(F)cc3)C3CO[C@@H](O)[C@H]23)OCO4)cc(OC)c1O (stereo partly specified)	–	5.78 µM (inactive)	–	14.4 µM (inactive)	3.72 µM (inactive)	5.07 µM (inactive)	7.62 µM (inactive)	–	5.26 µM (inactive)	3.48 µM (inactive)	–	6.01 µM (inactive)	6.71 µM (inactive)	1.24 µM (inactive)	1.03 µM (active)	–	12.3 µM (inactive)	22.2 µM (inactive)	–	5.12 µM (inactive)
